Measurements taken from patent publication US20260207769A1, “ANTIBODY DRUG CONJUGATES” (YALE UNIVERSITY, priority 2022, published 2026).

Legend:
[1] = test system: WT DLD-1 cells; assay: Shorter versus longer term treatment, viability of WT DLD-1 cells; assay type: cell-based, human
Method: (§1) To determine whether the EC50 values would change based on the duration of the treatment with 3E10-SN38 conjugates, WT or BRCA2^−/− DLD-1 cells were treated with different concentrations of SN38, cD31N antibody, or cD31N-SN38 conjugate and cell viability, and the EC50 values were tracked over time. Shorter term treatment was defined as a 24 hour treatment followed by a change to fresh treatment-free medium. Longer term treatment was defined as treatment without a change of medium for 7 days (e.g., the treatment is not removed).

[2] = test system: DNA damage response proteins; assay: Western blot of DNA damage response proteins in PEO-1 cells; assay type: cell-based; conditions: 100 nM, 24 and 48 hours
Method: PEO-4 (WT) and PEO-1 (BRCA2^−/−) ovarian cancer cells were treated with 100 nM of SN38, cD31N or cD31N-SN38 and collected at 24 and 48 hours of treatment for Western blot analysis to measure specific protein markers of DNA damage response as previously described.

[3] = test system: BRCA2^−/− DLD-1 cells; assay: Shorter versus longer term treatment, viability of BRCA2-/- DLD-1 cells; assay type: cell-based, human
Method: as §1

[4] = test system: DNA damage response proteins such as γH2AX, p-ATM, and p-ATR; assay: Western blot of DNA damage response proteins in WT DLD-1 cells; assay type: cell-based, human
Method: SN38 causes DNA damage via inhibition of topoisomerase I. Therefore, DNA damage was measured in both wild-type (WT) and BRCA2 deficient (BRCA2′) DLD-1 cells by induction of γH2AX after treatment with one of the following: no treatment (NT), SN38 alone (SN38), wild-type 3E10 antibody alone (cWT), 3E10-cD31N antibody alone, cWT-SN38 conjugate, or cD31N-SN38 conjugate. After treatment with 100 nM of the antibody or conjugate for 48 hours, the DLD-1 cells were collected for Western blot analysis to measure 7H2AX protein levels. […] These findings were consistent in both WT and BRCA2^−/− DLD-1 cells, but γH2AX protein levels were elevated across all groups in BRCA2^−/− DLD-1 cells.
DNA damage caused by SN38 or 3E10-SN38 conjugates in WT and BRCA2^−/− DLD-1 cells was assessed by measuring the levels of proteins involved in DNA damage response, p-ATM, p-ATR, pBRCA1, Topoisomerase 1 (TOPO-1), pChk2, pChk1, γH2AX and H2AX. DLD-1 cells were treated with 100 nM of SN38, cWT antibody, cD31N antibody, cWT-SN38 conjugate, or cD31N-SN38 conjugate and collected for Western blot after 24 (FIG. 21A) and 48 hours (FIG. 21B). No treatment (NT) was used as control.

CCc1c2c(nc3ccc(O)cc13)-c1cc3c(c(=O)n1C2)COC(=O)[C@]3(O)CC [SN38, SN-38]
cell viability ([1]; WT DLD-1, day 7 of longer term treatment): cell viability was reduced
cell viability and EC50, longer term versus shorter term treatment ([1]; WT DLD-1, 7 days without change of medium vs 24 hour treatment): lower cell viability and lower EC50 values than with shorter term treatment
protein expression of DNA damage response proteins [2]: protein expression of DNA damage response proteins was increased
cell viability ([3]; BRCA2-/- DLD-1, day 7 of longer term treatment): cell viability was reduced
cell viability and EC50, longer term versus shorter term treatment ([3]; BRCA2-/- DLD-1, 7 days without change of medium vs 24 hour treatment): lower cell viability and lower EC50 values than with shorter term treatment
protein levels of DNA damage response proteins ([4]; WT DLD-1, 100 nM, 24 and 48 hour time points): increased the protein levels of DNA damage response proteins such as γH2AX, p-ATM, and p-ATR
TOPO-1 levels ([4]; WT DLD-1, 100 nM, 24 and 48 hours): reduced TOPO-1 levels
γH2AX induction (Western blot) ([4]; WT DLD-1, 100 nM, 24 hours (Example 10)): 7H2AX was induced
γH2AX detection (Western blot) ([4]; WT DLD-1, 100 nM, 48 hours (Example 10)): 7H2AX was detected
γH2AX protein levels (Western blot) ([4]; WT DLD-1 cells, 100 nM, 48 hours (Example 5)): induced the highest levels of γH2AX expression
